Data taken from patent US4863899A, “Biologically active polypeptides” (priority 1987, dated 1989).

Experiments:
EGF receptor = molecular target: T1, EGF receptor (Homo sapiens, UniProt P00533); test: 125I-EGF radioreceptor assay on formalin-fixed A431 human carcinoma cells; assay type: binding
T1 construct: subconfluent monolayers of formalin-fixed A431 human carcinoma cells; endogenous in cells; host or cells: A431 human carcinoma cells, formalin-fixed
Protocol: The fixed cells were washed twice with 0.5 ml of binding buffer (Dulbecco's modified Eagle's medium containing 1 mg/ml of bovine serum albumin and 50 mM 2-[bis(2-hydroxyethyl)amino]ethanesulfonic acid, pH 6.8).
TGF was quantitated in a radioreceptor assay based on receptor cross-reactivity with mouse submaxillary gland epidermal growth factor (mEGF).

[1] = system: normal rat kidney fibroblasts, clone 49F; test: Soft agar growth assay; assay type: cell-based; conditions: tested with up to 10 μg
Protocol: The assay for colony growth in soft agar, using normal rat kidney fibroblasts, clone 49F, was performed as reported in Todaro et al. (1980) Proc. Natl. Acad. Sci. USA 77, pp. 5258-5262. Lyophilized samples to be tested were reconstituted in 0.5 ml of Dulbecco's modified Eagle's medium, supplemented with 10% calf serum. 1.5 ml of 0.5% (w/v) agar (Difco) in the supplemented medium and 0.5 ml of supplemented medium containing 2.3×10^4 cells were added. 2.3 ml of the resultant mixture were pipetted on a 2-ml base layer (0-5% agar in supplemented medium) in 60-mm Petri dishes (Falcon). The cells were incubated at 37° C. in a humidified 5% CO2 /95% air atmosphere. The assay was read unfixed and unstained at 5 days and at 10-14 days.

normal rat kidney cells = assay type: cell-based; conditions: on a ng equivalent basis
[2] = system: antiserum against peptide III; test: Radioimmunoassay, inhibition of precipitation of 125I-peptide III; assay type: binding, rabbit
Protocol: Rabbits were immunized by subcutaneous injection of 1 mg of conjugate injected subcutaneously at four separate sites. Two booster injections were administered at bi-weekly intervals following the initial injection. The serum used in this study was collected eighty days after the initial injection. An immunoglobulin fraction of this serum was prepared by ammonium sulfate precipitation. The product of antibodies specific for immunizing peptide was monitored with a solid phase enzyme-linked immunoabsorbent assay.
Reactants were mixed in a final volume of 50 microliters of a solution containing: 20 mM sodium phosphate, at pH 7.4; 200 mM NaCl: 40 mM dithiothreitol; 0.1% (w:v) BSA; 0.1% (w:v) NaN3 : ^125 I-peptide III; (10^4 cpm); antiserum at a final dilution of 1/15,000; and other additions, as specified. The reaction was initiated by the addition of antiserum and continued at 23° C. for 90 minutes. An equal volume of 10% formalin-fixed Staphalococcus A (Pansorbin, Calbiochem) was then added and incubation was continued for an additional 30 minutes at 23° C. The immunoadsorbant was removed by sedimentation through a cushion of 10% (w:v) sucrose and the amount of bound ^125 I-peptide III was determined using a gamma counter. Under these conditions, approximately 25% of ^125 I-peptide was bound by antibody in the absence of competitor. The amount of bound peptide III was corrected for non-specific binding measured in the absence of antibody (less than 5% of the total) and expressed as a percentage of maximal binding. Concentrations of competitors were expressed as the amount of peptide III required to give an equivalent inhibition of precipitation.

anti-KLH-peptide 1 IgG = test: Solid phase RIA, 125I anti-KLH-peptide 1 IgG on BSA-peptide 1; assay type: binding, rabbit
Protocol: TGF peptide 1 was coupled to keyhole limpet hemocyanin (KLH) or bovine serum albumin (BSA) by thiol/maleimide linkage (King et al. (1979) J. Immunol. Methods 28, pp. 201-206). Carrier-peptide complexes were purified by gel filtration. An average of 60 moles peptide/mole KLH and 20 moles peptide/mole BSA was achieved. Rabbits were immunized with the KLH-peptide 1 conjugate by multiple subcutaneous (s.c.) and intramuscular (i.m.) injections of 2 mg protein in complete Freund's adjuvant. Rabbits were boosted s.c. every two weeks with the immunogen in incomplete Freund's adjuvant. The IgG fraction of the antiserum after 5 boosts was used for immunoassays and radiolabeled using Na^125 I (NEN) and Enzymobeads (Bio-Rad) to 4×10^5 cpm/μg protein. Polyvinyl chloride 96-well plates (Costar) were coated with 200 μg/mL BSA-peptide 1 conjugate and countercoated with 10% normal rabbit serum in phosphate-buffered saline. Plates were incubated for 4 hours at 37° C. with [^125 I]anti-KLH-peptide 1 IgG (50,000 cpm/well) in the presence or absence of inhibitors, washed and individual wells were counted.

[3] = system: 125I-labeled rat TGF binding to EGF receptors of A431 cells; test: Binding of 125I-labeled rat TGF to A431 cells; design: species or system human
Protocol: was synthesized using the solid-phase technique of Ohgak et al. (1983) Journal of Immunol. Meth. 57, pp. 171-184. This oligopeptide was then coupled to keyhole limpet hemocyanin in accordance with the procedure of Baron et al. (1982) Cell 28, pp. 395-404, and used to immunize rabbits (Baron et al. (1982) Cell 28, pp. 395-404) and sheep (Lerner (1982) Nature 299, pp. 592-596). Antisera were assayed against peptide by a peroxidase-linked immunoassay (Kirkegaard and Perry Laboratories, Gaithersberg, Md.) and against homogeneous rat TGF (purified according to Example II above), by immunoprecipitation (Bister et al. (1980) J. Virol. 36, pp. 617-621) and Western blotting techniques (Burnett (1981) Analyt. Biochem. 112, pp. 195-203). Binding of ^125 I-labeled rat TGF and mouse EGF (Bethesda Research Labs, Bethesda, Md.) to A431 cells grown in 96-well microtiter plates was as described in Pross et al. (1977) Proc. Natl. Acad. Sci. U.S.A. 74, pp. 3918-3921.
Human epidermoid carcinoma A431 cells have in excess of 10^6 EGF receptors per cell (Fabricant et al. (1977) Proc. Natl. Acad. Sci. U.S.A. 74, pp. 565-569). TGF competes with EGF for binding to these receptors. Binding of ^125 I-labeled rat TGF to these cells was blocked by an excess of unlabeled EGF and by antiserum to peptide. […]

“EGF: mouse submaxillary gland epidermal growth factor” was tested, and the “amount required to inhibit EGF binding by 50%” value (EGF receptor; 0.4 ng 125I-EGF, 1 h at 22° C.) was 1.1 ng, the IC50 (EGF receptor; 125I-EGF at 0.33 nM (Example XI), read-out: concentration giving half-maximal inhibition of 125I-EGF binding) was 300 to 500 pM and the “increase in DNA synthesis relative to unstimulated serum deprived cells” value (mink fibroblasts) was 59%. For the same substance, the “stimulation of growth in soft agar” value [1] was “does not stimulate growth”, the “colonies in soft agar” value (normal rat kidney cells) was 120 colonies and the “highest concentration without inhibition of precipitation of 125I-peptide III” value [2] was “greater than 1 μM”. The “Relative Inhibitory Activity” value ([2]; half-maximal inhibitory concentration relative to peptide III, standard RIA, > = highest concentration tested) was > 1500, the “inhibition of antibody reaction with BSA-TGF peptide” value (anti-KLH-peptide 1 IgG) was “did not cause significant inhibition” and the “binding of 125I-labeled rat TGF to A431 cells” value [3] was “blocked”.
